From patent US4708964A, “Lipoxygenase inhibitors” (Chemex Pharmaceuticals, priority 1984, dated 1987)
Read-outs that look alike come from different tables or passages of the source.

Biological target: T1, soybean lipoxidase type V (Glycine max, UniProt P08170)
T1 sequence (P08170 1-839): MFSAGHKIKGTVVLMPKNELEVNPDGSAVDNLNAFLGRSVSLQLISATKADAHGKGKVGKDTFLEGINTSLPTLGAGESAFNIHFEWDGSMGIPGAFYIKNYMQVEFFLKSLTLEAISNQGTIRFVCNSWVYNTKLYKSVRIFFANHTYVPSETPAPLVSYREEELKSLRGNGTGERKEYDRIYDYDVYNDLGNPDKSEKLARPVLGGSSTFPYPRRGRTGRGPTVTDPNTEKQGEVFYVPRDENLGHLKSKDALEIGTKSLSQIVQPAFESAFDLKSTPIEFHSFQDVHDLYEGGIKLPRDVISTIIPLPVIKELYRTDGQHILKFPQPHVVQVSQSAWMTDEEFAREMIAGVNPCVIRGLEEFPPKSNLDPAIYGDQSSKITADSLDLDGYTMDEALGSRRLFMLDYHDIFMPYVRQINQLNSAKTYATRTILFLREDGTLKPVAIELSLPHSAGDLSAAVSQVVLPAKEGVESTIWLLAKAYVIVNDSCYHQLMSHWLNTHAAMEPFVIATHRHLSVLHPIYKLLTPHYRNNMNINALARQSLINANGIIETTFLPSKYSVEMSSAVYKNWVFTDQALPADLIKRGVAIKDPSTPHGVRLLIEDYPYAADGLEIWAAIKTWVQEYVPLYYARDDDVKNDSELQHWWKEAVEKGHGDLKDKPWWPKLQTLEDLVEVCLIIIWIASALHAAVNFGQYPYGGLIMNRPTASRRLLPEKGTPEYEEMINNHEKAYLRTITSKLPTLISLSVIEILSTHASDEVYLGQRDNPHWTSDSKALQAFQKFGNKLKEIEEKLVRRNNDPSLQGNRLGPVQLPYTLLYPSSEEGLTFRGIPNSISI
Conditions: for A234 nm/min.: 25° C., 0.1M borate pH 9

Row | Structure (SMILES) | A234 nm/min. (NDGA 1.3 × 10^-4 M) | A234 nm/min. (NDGA 2.6 × 10^-4 M) | A234 nm/min. (NDGA 3.2 × 10^-4 M) | A234 nm/min. (NDGA 3.9 × 10^-4 M) | inhibition at 130 µM (pH 9) | inhibition at 260 µM (pH 9) | inhibition at 320 µM (pH 9) | A234 nm/min. (alpha-Naphthol 2.5 × 10^-5 M) | A234 nm/min. (alpha-Naphthol 6.2 × 10^-5 M) | A234 nm/min. (alpha-Naphthol 7.5 × 10^-5 M) | A234 nm/min. (alpha-Naphthol 8.8 × 10^-5 M) | A234 nm/min. (alpha-Naphthol 12.5 × 10^-5 M) | inhibition at 25 µM (pH 9) | inhibition at 62 µM (pH 9) | inhibition at 75 µM (pH 9) | inhibition at 88 µM (pH 9) | inhibition at 125 µM (pH 9)
1 | CC(Cc1ccc(O)c(O)c1)C(C)Cc1ccc(O)c(O)c1 (centres unmarked) [NDGA, nordihydroguaiaretic acid] | 0.217 min⁻¹ | 0.186 min⁻¹ | 0.100 min⁻¹ | 0.035 min⁻¹ | 1% | 14% | 54% | – | – | – | – | – | – | – | – | – | –
2 | Oc1cccc2ccccc12 [alpha-Naphthol, alpha-naphthol] | – | – | – | – | – | – | – | .230 min⁻¹ | .141 min⁻¹ | .074 min⁻¹ | .069 min⁻¹ | .021 min⁻¹ | 12% | 46% | 72% | 74% | 92%
